{
  "source": "ChEMBL document CHEMBL1145783",
  "about": "“Development of an orexin-2 receptor selective agonist, [Ala(11), D-Leu(15)]orexin-B” (Bioorg Med Chem Lett, 2003)",
  "data": [
    {"target": "T1, Orexin receptor type 2 (Homo sapiens, UniProt O43614)", "T1 sequence (O43614 whole entry)": "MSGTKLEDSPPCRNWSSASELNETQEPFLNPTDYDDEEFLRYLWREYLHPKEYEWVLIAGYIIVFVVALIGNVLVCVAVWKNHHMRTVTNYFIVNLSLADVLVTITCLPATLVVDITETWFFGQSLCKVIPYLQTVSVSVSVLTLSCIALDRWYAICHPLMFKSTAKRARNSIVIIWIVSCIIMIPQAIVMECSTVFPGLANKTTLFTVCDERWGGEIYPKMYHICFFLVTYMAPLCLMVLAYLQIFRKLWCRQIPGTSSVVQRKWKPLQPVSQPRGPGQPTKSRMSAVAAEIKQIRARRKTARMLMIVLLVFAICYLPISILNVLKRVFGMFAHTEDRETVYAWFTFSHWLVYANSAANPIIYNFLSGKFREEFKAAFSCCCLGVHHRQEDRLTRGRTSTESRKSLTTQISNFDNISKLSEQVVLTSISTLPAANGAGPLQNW", "test": "Agonist activity against human orexin 2 receptor; EC50; nM", "format": "functional", "units": {"EC50": "nM"}, "values": [
      {"compound": "H-MTLIGAAHNGSAQLLRQLRGQLGPAGSR-NH2", "EC50": 0.23},
      {"compound": "CC[C@H](C)[C@@H](NC(=O)[C@H](CC(C)C)NC(=O)[C@@H](NC(=O)[C@@H](N)CCSC)[C@@H](C)O)C(=O)NCC(=O)N[C@@H](C)C(=O)N[C@@H](C)C(=O)N[C@@H](Cc1c[nH]cn1)C(=O)N[C@@H](CC(N)=O)C(=O)NCC(=O)N[C@@H](CO)C(=O)N[C@@H](C)C(=O)N[C@@H](CCC(N)=O)C(=O)N[C@@H](CC(C)C)C(=O)N[C@@H](CC(C)C)C(=O)N[C@@H](CCCN=C(N)N)C(=O)N[C@@H](CCC(N)=O)C(=O)N[C@@H](CC(C)C)C(=O)N[C@@H](CCCN=C(N)N)C(=O)NCC(=O)N[C@@H](CCC(N)=O)C(=O)N[C@@H](CC(C)C)C(=O)NCC(=O)N1CCC[C@H]1C(=O)N1CCC[C@H]1C(=O)NCC(=O)N[C@@H](CO)C(=O)N[C@@H](CCCN=C(N)N)C(N)=O", "EC50": "> 1400"},
      {"compound": "H-MTLIGGAHNGSAQLLRQLRGQLGPPGSR-NH2", "EC50": 0.84},
      {"compound": "H-ATLIGAAHNGSAQLLRQLRGQLGPPGSR-NH2", "EC50": 15},
      {"compound": "CC[C@H](C)[C@H](NC(=O)[C@H](CC(C)C)NC(=O)[C@@H](NC(=O)[C@@H](N)CCSC)[C@@H](C)O)C(=O)NCC(=O)N[C@@H](C)C(=O)N[C@@H](C)C(=O)N[C@@H](Cc1cnc[nH]1)C(=O)N[C@@H](CC(N)=O)C(=O)NCC(=O)N[C@@H](CO)C(=O)N[C@@H](C)C(=O)N[C@@H](CCC(N)=O)C(=O)N[C@@H](CC(C)C)C(=O)N[C@@H](CC(C)C)C(=O)N[C@H](CCCN=C(N)N)C(=O)N[C@@H](CCC(N)=O)C(=O)N[C@@H](CC(C)C)C(=O)N[C@@H](CCCN=C(N)N)C(=O)NCC(=O)N[C@@H](CCC(N)=O)C(=O)N[C@@H](CC(C)C)C(=O)NCC(=O)N1CCC[C@H]1C(=O)N1CCC[C@H]1C(=O)NCC(=O)N[C@@H](CO)C(=O)N[C@@H](CCCN=C(N)N)C(N)=O", "EC50": 0.41},
      {"compound": "CC[C@H](C)[C@H](NC(=O)[C@H](CC(C)C)NC(=O)[C@@H](NC(=O)[C@@H](N)CCSC)[C@@H](C)O)C(=O)NCC(=O)N[C@@H](C)C(=O)N[C@@H](C)C(=O)N[C@@H](Cc1c[nH]cn1)C(=O)N[C@@H](CC(N)=O)C(=O)NCC(=O)N[C@@H](CO)C(=O)N[C@@H](C)C(=O)N[C@@H](CCC(N)=O)C(=O)N[C@@H](CC(C)C)C(=O)N[C@@H](CC(C)C)C(=O)N[C@@H](CCCN=C(N)N)C(=O)N[C@@H](CCC(N)=O)C(=O)N[C@@H](CC(C)C)C(=O)N[C@@H](CCCN=C(N)N)C(=O)NCC(=O)N[C@@H](CCC(N)=O)C(=O)N[C@@H](CC(C)C)C(=O)NCC(=O)N1CCC[C@@H]1C(=O)N1CCC[C@H]1C(=O)NCC(=O)N[C@@H](CO)C(=O)N[C@@H](CCCN=C(N)N)C(N)=O", "EC50": 0.16},
      {"compound": "CC[C@H](C)[C@H](NC(=O)[C@H](CC(C)C)NC(=O)[C@@H](NC(=O)[C@@H](N)CCSC)[C@@H](C)O)C(=O)NCC(=O)N[C@@H](C)C(=O)N[C@@H](C)C(=O)N[C@@H](Cc1cnc[nH]1)C(=O)N[C@@H](CC(N)=O)C(=O)NCC(=O)N[C@@H](CO)C(=O)N[C@@H](C)C(=O)N[C@@H](CCC(N)=O)C(=O)N[C@@H](CC(C)C)C(=O)N[C@@H](CC(C)C)C(=O)N[C@@H](CCCN=C(N)N)C(=O)N[C@@H](CCC(N)=O)C(=O)N[C@@H](CC(C)C)C(=O)N[C@@H](CCCN=C(N)N)C(=O)NCC(=O)N[C@@H](CCC(N)=O)C(=O)N[C@@H](CC(C)C)C(=O)NCC(=O)N1CCC[C@H]1C(=O)N1CCC[C@H]1C(=O)N[C@H](C)C(=O)N[C@@H](CO)C(=O)N[C@@H](CCCN=C(N)N)C(N)=O", "EC50": 0.16},
      {"compound": "CC[C@H](C)[C@H](NC(=O)[C@H](CC(C)C)NC(=O)[C@@H](NC(=O)[C@@H](N)CCSC)[C@@H](C)O)C(=O)NCC(=O)N[C@@H](C)C(=O)N[C@@H](C)C(=O)N[C@@H](Cc1c[nH]cn1)C(=O)N[C@@H](CC(N)=O)C(=O)NCC(=O)N[C@@H](CO)C(=O)N[C@@H](C)C(=O)N[C@@H](CCC(N)=O)C(=O)N[C@@H](CC(C)C)C(=O)N[C@@H](CC(C)C)C(=O)N[C@@H](CCCN=C(N)N)C(=O)N[C@@H](CCC(N)=O)C(=O)N[C@@H](CC(C)C)C(=O)N[C@@H](CCCN=C(N)N)C(=O)NCC(=O)N[C@@H](CCC(N)=O)C(=O)N[C@@H](CC(C)C)C(=O)N[C@@H](C)C(=O)N1CCC[C@H]1C(=O)N1CCC[C@H]1C(=O)NCC(=O)N[C@@H](CO)C(=O)N[C@@H](CCCN=C(N)N)C(N)=O", "EC50": 0.12},
      {"compound": "CC[C@H](C)[C@H](NC(=O)[C@H](CC(C)C)NC(=O)[C@@H](NC(=O)[C@@H](N)CCSC)[C@@H](C)O)C(=O)NCC(=O)N[C@@H](C)C(=O)N[C@H](C)C(=O)N[C@@H](Cc1cnc[nH]1)C(=O)N[C@@H](CC(N)=O)C(=O)NCC(=O)N[C@@H](CO)C(=O)N[C@@H](C)C(=O)N[C@@H](CCC(N)=O)C(=O)N[C@@H](CC(C)C)C(=O)N[C@@H](CC(C)C)C(=O)N[C@@H](CCCN=C(N)N)C(=O)N[C@@H](CCC(N)=O)C(=O)N[C@@H](CC(C)C)C(=O)N[C@@H](CCCN=C(N)N)C(=O)NCC(=O)N[C@@H](CCC(N)=O)C(=O)N[C@@H](CC(C)C)C(=O)NCC(=O)N1CCC[C@H]1C(=O)N1CCC[C@H]1C(=O)NCC(=O)N[C@@H](CO)C(=O)N[C@@H](CCCN=C(N)N)C(N)=O", "EC50": 2.6},
      {"compound": "H-MTLIGAAHNGSAQLLRQLRGQLGPPGSA-NH2", "EC50": 0.2},
      {"compound": "H-MTLIGAAANGSAQLLRQLRGQLGPPGSR-NH2", "EC50": 0.72},
      {"compound": "H-MTLIGAAHNGSAQLLAQLRGQLGPPGSR-NH2", "EC50": 0.13},
      {"compound": "H-MALIGAAHNGSAQLLRQLRGQLGPPGSR-NH2", "EC50": 9.7},
      {"compound": "CC[C@H](C)[C@H](NC(=O)[C@H](CC(C)C)NC(=O)[C@@H](NC(=O)[C@@H](N)CCSC)[C@@H](C)O)C(=O)NCC(=O)N[C@@H](C)C(=O)N[C@@H](C)C(=O)N[C@@H](Cc1c[nH]cn1)C(=O)N[C@@H](CC(N)=O)C(=O)NCC(=O)N[C@@H](CO)C(=O)N[C@@H](C)C(=O)N[C@@H](CCC(N)=O)C(=O)N[C@@H](CC(C)C)C(=O)N[C@@H](CC(C)C)C(=O)N[C@@H](CCCN=C(N)N)C(=O)N[C@@H](CCC(N)=O)C(=O)N[C@@H](CC(C)C)C(=O)N[C@@H](CCCN=C(N)N)C(=O)NCC(=O)N[C@@H](CCC(N)=O)C(=O)N[C@H](CC(C)C)C(=O)NCC(=O)N1CCC[C@H]1C(=O)N1CCC[C@H]1C(=O)NCC(=O)N[C@@H](CO)C(=O)N[C@@H](CCCN=C(N)N)C(N)=O", "EC50": 0.084},
      {"compound": "H-MTLIGAAHNGSGQLLRQLRGQLGPPGSR-NH2", "EC50": 0.091},
      {"compound": "CC[C@H](C)[C@H](NC(=O)[C@H](CC(C)C)NC(=O)[C@@H](NC(=O)[C@@H](N)CCSC)[C@@H](C)O)C(=O)NCC(=O)N[C@@H](C)C(=O)N[C@@H](C)C(=O)N[C@@H](Cc1c[nH]cn1)C(=O)N[C@@H](CC(N)=O)C(=O)NCC(=O)N[C@@H](CO)C(=O)N[C@@H](C)C(=O)N[C@@H](CCC(N)=O)C(=O)N[C@@H](CC(C)C)C(=O)N[C@@H](CC(C)C)C(=O)N[C@@H](CCCN=C(N)N)C(=O)N[C@@H](CCC(N)=O)C(=O)N[C@@H](CC(C)C)C(=O)N[C@@H](CCCN=C(N)N)C(=O)NCC(=O)N[C@@H](CCC(N)=O)C(=O)N[C@@H](CC(C)C)C(=O)NCC(=O)N1CCC[C@H]1C(=O)N1CCC[C@@H]1C(=O)NCC(=O)N[C@@H](CO)C(=O)N[C@@H](CCCN=C(N)N)C(N)=O", "EC50": 0.15}
    ]}
  ]
}
